# Laboratory results from patent US6852673B2, “Herbicidal pyridine compounds” (BASF Aktiengesellschaft, priority 1998, dated 2005).
# How the values were obtained:
# Format in all cases: in vivo
# Hordeum vulgare (HORVW) = assay: Pre-emergence herbicidal evaluation, winter barley
# Summary of the method: (§1)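 Seeds mixed with potting soil were planted over about one inch of soil per pot, then sprayed with test compound in aqueous acetone at the equivalent of about 0.0125 to 0.4 kg per hectare. Pots were kept under standard greenhouse care and visually rated 2 to 4 weeks after treatment.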
# Zea mays (ZEAMX) = assay: Pre-emergence herbicidal evaluation, maize
# Source text: (§2) The pre-emergence herbicidal activity of the compounds of the present invention is exemplified by the following test in which the seeds of a variety of monocotyledonous and dicotyledonous plants are seperately mixed with potting soil and planted on top of approximately one inch of soil in separate pots. After planting, the pots are sprayed with the selected aqueous acetone solution containing test compound in sufficient quantity to provide the equivalent of about 0.0125 to 0.4 kg per hectare of test compound per pot. The treated pots are then placed on greenhouse benches, watered and cared for in accordance with conventional greenhouse procedures. From 2 to 4 weeks after treatment, the tests are terminated and each pot is examined and rated according to the rating system set forth below.
# [1] = system: Cassia obtusifolia (CASOB); assay: Pre-emergence herbicidal evaluation, sicklepod
# Source text: as §2
# [2] = system: Ipomoea hederacea (IPOHE); assay: Pre-emergence herbicidal evaluation, morning glory
# Summary of the method: as §1
# [3] = system: Echinochloa grus galli (ECHCG); assay: Pre-emergence herbicidal evaluation, barnyard grass
# Source text: as §2
# Glycine max (GLXMA) = assay: Post-emergence herbicidal evaluation, soyabeans; details: rated 2 to 4 weeks after treatment
# Experimental: (§3) [table] [table] […] These acetone solutions are diluted with water and the resulting formulations applied at dosage levels equivalent of about 0.03 to 0.4 kg per hectare of test compound per pot. After spraying the plants are placed on greenhouse benches and are cared for in the usual manner, commensurate with conventional greenhouse practices. From 2 to 4 weeks after treatment, the seedling plants are examined and rated according to the rating system provided above. A rating 0 indicates growth as untreated control, a rating 9 indicates death.
# [4] = system: Cassia obtusifolia (CASOB); assay: Post-emergence herbicidal evaluation, sicklepod; details: rated 2 to 4 weeks after treatment
# Experimental: as §3
# Stellaria media (STEME) = assay: Post-emergence herbicidal evaluation, chickweed; details: rated 2 to 4 weeks after treatment
# Experimental: as §3
# [5] = system: Digitaria sanguinalis (DIGSA); assay: Post-emergence herbicidal evaluation, large crabgrass; details: rated 2 to 4 weeks after treatment
# Experimental: as §3
# [6] = system: Digitaria sanguinalis (DIGSA); assay: Pre-emergence herbicidal evaluation, large crabgrass
# Summary of the method: as §1
# weeds = assay: Post-emergence herbicidal evaluation, overall weed control; details: in barley at crop selective doses
# Experimental: as §3
Structure (SMILES),HORVW rating (Hordeum vulgare (HORVW); dose 0.013 kg/ha),HORVW rating (Hordeum vulgare (HORVW); dose 0.025 kg/ha),HORVW rating (Hordeum vulgare (HORVW); dose 0.1 kg/ha),HORVW rating (Hordeum vulgare (HORVW); dose 0.4 kg/ha),ZEAMX rating (Zea mays (ZEAMX); dose 0.013 kg/ha),ZEAMX rating (Zea mays (ZEAMX); dose 0.025 kg/ha),ZEAMX rating (Zea mays (ZEAMX); dose 0.4 kg/ha),IPOHE rating ([2]; dose 0.013 kg/ha),IPOHE rating ([2]; dose 0.025 kg/ha),IPOHE rating ([2]; dose 0.1 kg/ha),IPOHE rating ([2]; dose 0.4 kg/ha),ECHCG rating ([3]; dose 0.013 kg/ha),ECHCG rating ([3]; dose 0.025 kg/ha),ECHCG rating ([3]; dose 0.1 kg/ha),ECHCG rating ([3]; dose 0.4 kg/ha),GLXMA rating (Glycine max (GLXMA); dose 0.1 kg/ha),GLXMA rating (Glycine max (GLXMA); dose 0.4 kg/ha),CASOB rating ([4]; dose 0.4 kg/ha),STEME rating (Stellaria media (STEME); dose 0.1 kg/ha),STEME rating (Stellaria media (STEME); dose 0.4 kg/ha),further results
"Cc1cc(OC/C=C/C(F)(F)F)nc(Oc2cc(C(F)(F)F)nn2C)c1 [Example 1, (E)-2-(1-Methyl-3-trifluoromethylpyrazol-5-yloxy)-4-methyl-6-(4,4,4-trifluorobut-2-enyloxy)pyridine]",1 (1 - Trace effect),2 (2 - Slight effect),5 (5 - Definite injury),5 (5 - Definite injury),1 (1 - Trace effect),2 (2 - Slight effect),5 (5 - Definite injury),2 (2 - Slight effect),5 (5 - Definite injury),7 (7 - Good herbicidal effect),9 (9 - Complete kill),3 (3 - Moderate effect),5 (5 - Definite injury),7 (7 - Good herbicidal effect),9 (9 - Complete kill),8 (8 - Approaching complete kill),8 (8 - Approaching complete kill),5 (5 - Definite injury),5 (5 - Definite injury),6 (6 - Herbicidal effect),CASOB rating ([1]; dose 0.013 kg/ha): 0 (0 - No effect); CASOB rating ([1]; dose 0.025 kg/ha): 9 (9 - Complete kill); CASOB rating ([1]; dose 0.1 kg/ha): 9 (9 - Complete kill); CASOB rating ([1]; dose 0.4 kg/ha): 9 (9 - Complete kill); GLXMA rating (Glycine max (GLXMA); dose 0.03 kg/ha): 6 (6 - Herbicidal effect); CASOB rating ([4]; dose 0.03 kg/ha): 5 (5 - Definite injury); CASOB rating ([4]; dose 0.1 kg/ha): 5 (5 - Definite injury); STEME rating (Stellaria media (STEME); dose 0.03 kg/ha): 5 (5 - Definite injury); DIGSA rating ([5]; dose 0.03 kg/ha): 7 (7 - Good herbicidal effect); DIGSA rating ([5]; dose 0.1 kg/ha): 8 (8 - Approaching complete kill); DIGSA rating ([5]; dose 0.4 kg/ha): 8 (8 - Approaching complete kill)
Cc1cc(OCC(F)(F)C(F)F)nc(Oc2cc(C(F)(F)F)nn2C)c1 [Example 6],0 (0 - No effect),0 (0 - No effect),2 (2 - Slight effect),3 (3 - Moderate effect),0 (0 - No effect),1 (1 - Trace effect),5 (5 - Definite injury),0 (0 - No effect),1 (1 - Trace effect),2 (2 - Slight effect),8 (8 - Approaching complete kill),0 (0 - No effect),3 (3 - Moderate effect),8 (8 - Approaching complete kill),9 (9 - Complete kill),7 (7 - Good herbicidal effect),7 (7 - Good herbicidal effect),6 (6 - Herbicidal effect),2 (2 - Slight effect),3 (3 - Moderate effect),ZEAMX rating (Zea mays (ZEAMX); dose 0.1 kg/ha): 3 (3 - Moderate effect); CASOB rating ([1]; dose 0.4 kg/ha): 9 (9 - Complete kill); DIGSA rating ([6]; dose 0.013 kg/ha): 1 (1 - Trace effect); DIGSA rating ([6]; dose 0.025 kg/ha): 2 (2 - Slight effect); DIGSA rating ([6]; dose 0.1 kg/ha): 9 (9 - Complete kill); DIGSA rating ([6]; dose 0.4 kg/ha): 9 (9 - Complete kill); GLXMA rating (Glycine max (GLXMA); dose 0.25 kg/ha): 7 (7 - Good herbicidal effect); CASOB rating ([4]; dose 0.25 kg/ha): 4 (4 - Injury); STEME rating (Stellaria media (STEME); dose 0.25 kg/ha): 2 (2 - Slight effect); DIGSA rating ([5]; dose 0.1 kg/ha): 6 (6 - Herbicidal effect); DIGSA rating ([5]; dose 0.25 kg/ha): 4 (4 - Injury); DIGSA rating ([5]; dose 0.4 kg/ha): 7 (7 - Good herbicidal effect); broad-leaved weed control (weeds): effective
Cc1cc(OCC(F)(F)C(F)(F)C(F)(F)C(F)F)nc(Oc2cc(C(F)(F)F)nn2C)c1 [Example 8],0 (0 - No effect),1 (1 - Trace effect),3 (3 - Moderate effect),4 (4 - Injury),1 (1 - Trace effect),1 (1 - Trace effect),2 (2 - Slight effect),2 (2 - Slight effect),2 (2 - Slight effect),9 (9 - Complete kill),9 (9 - Complete kill),1 (1 - Trace effect),1 (1 - Trace effect),6 (6 - Herbicidal effect),8 (8 - Approaching complete kill),7 (7 - Good herbicidal effect),8 (8 - Approaching complete kill),7 (7 - Good herbicidal effect),5 (5 - Definite injury),8 (8 - Approaching complete kill),selectivity in maize (Zea mays (ZEAMX)): good selectivity; ZEAMX rating (Zea mays (ZEAMX); dose 0.1 kg/ha): 1 (1 - Trace effect); DIGSA rating ([6]; dose 0.013 kg/ha): 1 (1 - Trace effect); DIGSA rating ([6]; dose 0.025 kg/ha): 2 (2 - Slight effect); DIGSA rating ([6]; dose 0.1 kg/ha): 9 (9 - Complete kill); DIGSA rating ([6]; dose 0.4 kg/ha): 9 (9 - Complete kill); GLXMA rating (Glycine max (GLXMA); dose 0.03 kg/ha): 5 (5 - Definite injury); CASOB rating ([4]; dose 0.03 kg/ha): 2 (2 - Slight effect); CASOB rating ([4]; dose 0.1 kg/ha): 7 (7 - Good herbicidal effect); STEME rating (Stellaria media (STEME); dose 0.03 kg/ha): 3 (3 - Moderate effect); DIGSA rating ([5]; dose 0.03 kg/ha): 8 (8 - Approaching complete kill); DIGSA rating ([5]; dose 0.1 kg/ha): 9 (9 - Complete kill); DIGSA rating ([5]; dose 0.4 kg/ha): 9 (9 - Complete kill); broad-leaved weed control (weeds): effective
